Data on two molecules can be found in US11753407B2, “Compounds for treating spinal muscular atrophy” (PTC Therapeutics, Inc., priority 2012, dated 2023).

Test [1] concerns SMN2 mRNA in tissues of C/C-allele SMA mice. Briefly: Endogenous SMN2 mRNA end-point semi-quantitative RT-PCR splicing assay in animal tissues. It is filed as in vivo. The conditions noted are these: brain and muscle, BID oral gavage 10 days, end-point RT-PCR (FIG. 7). The protocol:
The endpoint reverse transcription-PCR (RT-PCR) splicing assay is used to quantify the levels of the full length and Δ7 SMN2 mRNA in tissues from mice treated with test compound.
Protocol. C/C-allele SMA mice are treated by oral gavage BID for 10 days with test compounds in 0.5% HPMC and 0.1% Tween-80. Tissue samples are collected and snap frozen for RNA purification.
Tissue samples (20-40 mg) are homogenized in QIAzol Lysis Reagent for 2 minutes at 20 Hz in the TissueLyser II using one stainless steel bead. After addition of chloroform, the homogenate is separated into aqueous and organic phases by centrifugation. RNA partitioned to the upper, aqueous phase is extracted and ethanol is added to provide appropriate binding conditions. The sample is then applied to the RNeasy spin column from the RNeasy Mini Kit, where total RNA binds to the membrane. The RNA is eluted in RNase-free water then stored at −20° C.
SMN2 spliced products are identified using the following amplification primers in Table 8. These primers hybridize to a nucleotide sequence in exon 6 (SMN Forward D, SEQ ID NO. 13) (nucleotide 22 to nucleotide 46) and exon 8 (SMN Reverse C, SEQ ID NO. 12), common to human SMN1 and SMN2 mRNA.
To synthesize cDNA, combine 1 μL of RNA solution (25-50 ng), 4 μL of 5× iScript reaction mix, 1 μL of reverse transcriptase, and 10 μL of water are combined and incubates 25° C. for 5 min followed by 42° C. for 30 min followed by 85° C. for 5 min. The cDNA solution is stored at −20° C.
To perform endpoint PCR, 5 μL of cDNA, 0.2 μL of 100 μM forward primer, 0.2 μL of 100 μM reverse primer, and 22.5 μL of polymerase super mix are combined in a 96 well semiskirted PCR plate. PCR is carried out at the following temperatures for the indicated time: Step 1: 94° C. (2 min), Step 2: 94° C. (30 sec), Step 3: 55° C. (30 sec), Step 4: 68° C. (1 min), then repeat Steps 2 to 4 for a total of 33 cycles, then hold at 4° C.
10 μL of each PCR sample is electrophoretically separated on a 2% agarose E-gel for 14 minutes stained with dsDNA staining reagents (e.g., ethidium bromide) and visualized using a gel imager.

The subject of test [2] is gems (Smn protein nuclear foci) in SMA patient fibroblast cells (GM03813). Briefly: Gems count (Smn-dependent nuclear speckle count) assay. It is filed as cell-based, human. The conditions noted are these: SMA Type 1 patient cells, 48 hours, relative to DMSO (FIG. 9). An excerpt: The level of Smn protein directly correlates with the amount of nuclear foci, also known as gems, produced upon staining the cell with a fluorescently labeled anti-Smn antibody (Liu and Dreyfuss, EMBO J., 1996, 15:3555). Gems are multi-protein complexes whose formation is nucleated by the Smn protein and the gems count assay is used to evaluate the level of Smn protein in the cell. As described herein, the gems count assay is used to quantify the level of Smn protein in SMA patient fibroblast cells treated with a test compound.
Protocol: Cells are thawed and incubated in DMEM-10% FBS for 72 hours, then trypsinized, counted and resuspended to 100,000 cells/mL in DMEM-10% FBS. The cell suspension (2 mL) is plated in a 6-well cell culture plate with a sterile cover slip and incubated for 3 to 5 hours. Test compounds are serially diluted 3.16-fold in 100% DMSO to generate a 7-point dilution curve. […]
Cell culture medium is aspirated from the wells containing cover slips and gently washed three times with cold PBS. […] The number of gems is counted per >150 nuclei and % activation is calculated using DMSO and 10 nM bortezomib as controls. For each test compound, the cells are examined at all wavelengths to identify test compounds with inherent fluorescence.

`COc1ccc(-c2cc(=O)n3cc(N4CCNCC4)ccc3n2)cc1OC` [Cpd 6, 2-(3,4-dimethoxyphenyl)-7-(piperazin-1-yl)-4H-pyrido[1,2-a]pyrimidin-4-one]: in test [1], the “SMN2 FL mRNA” value was “progressively more SMN2 FL mRNA” and the “SMN2 Δ7 mRNA” value is “less SMN2 Δ7 mRNA”. The “gems (nuclear speckle count)” value in test [2] is recorded as “progressively more gems”.

Take `Cc1cn2nc(-c3cc(=O)n4cc(N5CCN(C)CC5)ccc4n3)cc2c(C)n1` [Cpd 170, 2-(4,6-dimethylpyrazolo[1,5-a]pyrazin-2-yl)-7-(4-methylpiperazin-1-yl)-4H-pyrido[1,2-a]pyrimidin-4-one]: in test [1], the “SMN2 FL mRNA” value is “progressively more SMN2 FL mRNA” and the “SMN2 Δ7 mRNA” value is on record as “less SMN2 Δ7 mRNA”. Moreover, the “gems (nuclear speckle count)” value in test [2] is given as “progressively more gems”.
